Earlier results, collected in patent US20050037366A1, “Individual drug safety” (priority 2003, published 2005).
“Also recorded” adds a separate entry of the source. One block for each molecule: values may come before it.

Tests used:
[1] = men with hormone-refractory prostate cancer
[2] = rats
[3] = in vivo
ABCC2 (MRP2, cMOAT) = molecular target: T1, ABCC2 (MRP2, cMOAT) (Rattus norvegicus, UniProt Q63120); settings: rats; ABCC2-mediated mechanisms
T1 construct: host or cells: rats (in vivo, liver canalicular membrane)
T1 sequence (Q63120 whole entry): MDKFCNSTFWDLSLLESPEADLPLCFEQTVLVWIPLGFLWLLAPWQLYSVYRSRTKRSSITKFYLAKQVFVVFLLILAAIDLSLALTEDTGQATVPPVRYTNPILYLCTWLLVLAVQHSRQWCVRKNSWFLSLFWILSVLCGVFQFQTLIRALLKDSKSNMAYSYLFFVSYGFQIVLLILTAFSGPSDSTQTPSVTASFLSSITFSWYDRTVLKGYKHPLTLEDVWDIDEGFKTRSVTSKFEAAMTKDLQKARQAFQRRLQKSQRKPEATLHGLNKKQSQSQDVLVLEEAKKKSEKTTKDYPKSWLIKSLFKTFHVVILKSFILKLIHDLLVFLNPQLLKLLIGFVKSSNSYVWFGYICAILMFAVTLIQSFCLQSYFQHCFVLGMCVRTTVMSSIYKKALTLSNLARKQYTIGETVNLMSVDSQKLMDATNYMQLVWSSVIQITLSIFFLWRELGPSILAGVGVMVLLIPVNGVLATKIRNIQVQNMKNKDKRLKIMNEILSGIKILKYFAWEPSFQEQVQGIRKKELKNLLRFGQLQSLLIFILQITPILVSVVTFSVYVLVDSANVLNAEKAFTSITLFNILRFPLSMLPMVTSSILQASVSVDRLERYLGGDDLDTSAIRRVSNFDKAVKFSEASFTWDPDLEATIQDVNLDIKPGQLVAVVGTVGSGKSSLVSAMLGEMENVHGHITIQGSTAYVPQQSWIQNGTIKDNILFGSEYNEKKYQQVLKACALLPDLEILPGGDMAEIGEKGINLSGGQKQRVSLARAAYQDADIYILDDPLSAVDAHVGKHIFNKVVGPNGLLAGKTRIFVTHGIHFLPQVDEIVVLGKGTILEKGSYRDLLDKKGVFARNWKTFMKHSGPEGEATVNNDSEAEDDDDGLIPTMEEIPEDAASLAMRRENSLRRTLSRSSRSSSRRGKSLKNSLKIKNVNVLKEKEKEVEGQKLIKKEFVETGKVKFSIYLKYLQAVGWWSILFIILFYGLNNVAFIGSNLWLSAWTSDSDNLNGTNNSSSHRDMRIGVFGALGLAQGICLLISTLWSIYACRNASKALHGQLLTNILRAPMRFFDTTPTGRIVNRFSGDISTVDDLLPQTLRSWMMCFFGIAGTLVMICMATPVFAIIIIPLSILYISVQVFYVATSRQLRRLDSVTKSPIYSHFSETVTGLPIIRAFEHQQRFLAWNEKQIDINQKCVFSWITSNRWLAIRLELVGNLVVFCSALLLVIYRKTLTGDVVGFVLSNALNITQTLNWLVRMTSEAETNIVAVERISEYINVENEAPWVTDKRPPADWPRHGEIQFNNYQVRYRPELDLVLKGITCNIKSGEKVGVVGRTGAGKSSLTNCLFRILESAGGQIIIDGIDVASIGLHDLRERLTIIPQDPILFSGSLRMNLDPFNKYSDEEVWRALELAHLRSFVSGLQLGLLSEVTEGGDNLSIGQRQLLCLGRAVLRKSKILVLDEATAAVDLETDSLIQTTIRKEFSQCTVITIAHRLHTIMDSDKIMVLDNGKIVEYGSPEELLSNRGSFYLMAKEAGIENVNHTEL

- ADRs in phase II study [1]: headache, peripheral edema and rhinitis
Structure (SMILES): CCCCN(CCCC)C(=O)CN1C[C@H](c2ccc3c(c2)OCO3)[C@@H](C(=O)O)[C@@H]1c1ccc(OC)cc1 [Atrasentan]

- cerebral blood flow [2]: decrease of cerebral blood flow
Structure (SMILES): CCCC[C@@H](NC(=O)[C@@H](Cc1cn(C(=O)OC)c2ccccc12)NC(=O)[C@H](CC(C)(C)C)NC(=O)N1[C@H](C)CCC[C@@H]1C)C(=O)O [BQ-788]

- canalicular bile formation (ABCC2 (MRP2, cMOAT)): alters canalicular bile formation
Structure (SMILES): COc1ccccc1Oc1c(NS(=O)(=O)c2ccc(C(C)(C)C)cc2)nc(-c2ncccn2)nc1OCCO [Bosentan]
- ADR: liver injury [3]: can lead to liver injury; also recorded: can induce cholestatic liver injury
- effect on Bsep-mediated canalicular bile salt transport (Bsep (ABCB 11)): inhibition of Bsep-mediated canalicular bile salt transport
